Consider two compounds from patent US9777008B2, “PRMT5 inhibitors and uses thereof” (Epizyme, Inc., priority 2012, dated 2017).

For experiment [1], the target named is PRMT5/MEP50 (Homo sapiens (Human), UniProt O14744). The experiment is described as follows: PRMT5 Biochemical Assay (PRMT5/MEP50 enzyme assay on peptide substrate, 3H-SAM Flashplate). Summed up: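 FLAG-PRMT5/His-MEP50 from Sf9 cells, 4 nM, with 40 nM biotinylated H4(1-15) peptide and 75 nM 3H-SAM in 20 mM Bicine pH 7.6, 1% DMSO; compound preincubated 30 min at 25 °C. Stopped with 600 uM cold SAM; 3H-peptide captured on streptavidin Flashplate, counted; % inhibition versus DMSO and 100 uM SAH controls, IC50 by 3- or 4-parameter fit.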
Sequence of PRMT5/MEP50 (O14744 other isoform, or with tags, fused parts or gaps): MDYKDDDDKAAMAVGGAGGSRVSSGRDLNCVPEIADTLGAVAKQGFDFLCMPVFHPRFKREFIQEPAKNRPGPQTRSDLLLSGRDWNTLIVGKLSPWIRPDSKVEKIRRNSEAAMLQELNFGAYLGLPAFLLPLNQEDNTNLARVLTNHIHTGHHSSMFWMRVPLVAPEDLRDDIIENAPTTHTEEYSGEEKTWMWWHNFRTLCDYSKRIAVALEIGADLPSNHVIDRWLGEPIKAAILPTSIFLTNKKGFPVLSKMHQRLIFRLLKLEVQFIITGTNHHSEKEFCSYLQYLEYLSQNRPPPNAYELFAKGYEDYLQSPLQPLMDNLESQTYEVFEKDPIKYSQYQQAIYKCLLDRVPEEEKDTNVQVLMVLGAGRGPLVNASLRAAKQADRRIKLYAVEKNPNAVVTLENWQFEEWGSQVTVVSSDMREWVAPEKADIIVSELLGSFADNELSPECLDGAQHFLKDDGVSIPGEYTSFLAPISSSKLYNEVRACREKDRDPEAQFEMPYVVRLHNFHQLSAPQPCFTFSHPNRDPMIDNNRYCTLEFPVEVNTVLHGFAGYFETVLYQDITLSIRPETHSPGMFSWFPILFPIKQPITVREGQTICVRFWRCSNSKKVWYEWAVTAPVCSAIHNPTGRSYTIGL
Sequence of PRMT5/MEP50 (Q9BQA1 other isoform, or with tags, fused parts or gaps partner): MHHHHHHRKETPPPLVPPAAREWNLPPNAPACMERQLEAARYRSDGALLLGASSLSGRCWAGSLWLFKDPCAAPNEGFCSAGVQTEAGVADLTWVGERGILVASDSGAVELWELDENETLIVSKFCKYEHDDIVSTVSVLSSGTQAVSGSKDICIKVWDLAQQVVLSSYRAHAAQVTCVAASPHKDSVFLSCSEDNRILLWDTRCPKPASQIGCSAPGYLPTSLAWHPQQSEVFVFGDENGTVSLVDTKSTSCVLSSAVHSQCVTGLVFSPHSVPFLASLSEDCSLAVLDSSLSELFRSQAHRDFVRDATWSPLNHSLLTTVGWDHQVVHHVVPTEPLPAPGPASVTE

The subject of experiment [2] is Z-138 cell line. The experiment is described as follows: Z-138 Proliferation Assay (Cell-Titer Glo, 5 days). The format is cell-based. Conditions: Z-138 cells. The text has this: [formula] Z-138 Proliferation Assay
Z-138 suspension cells were purchased from ATCC (American Type Culture Collection, Manassas, Va.). RPMI/Glutamax medium, penicillin-streptomycin, heat inactivated fetal bovine serum were purchased from Life Technologies, Grand Island, N.Y., USA. V-bottom polypropylene 384-well plates were purchased from Greiner Bio-One, Monroe, N.C., USA. Cell culture 384-well white opaque plates were purchased from Perkin Elmer, Waltham, Mass., USA. Cell-Titer Glo® was purchased from Promega Corporation, Madison, Wis., USA. SpectraMax M5 plate reader was purchased from Molecular Devices LLC, Sunnyvale, Calif., USA. […] Cell viability was measured by quantitation of ATP present in the cell cultures, adding […] of Cell Titer Glo® reagent to the cell plates. Luminescence was read in the SpectraMax M5 microplate reader. The concentration of compound inhibiting cell viability by 50% was determined using a 4-parametric fit of the normalized dose response curves.

What is called IC50 is the concentration that inhibits the measured activity by half. The EC50 is the concentration needed to bring the measured effect to its halfway point. A low value points to a more potent agent. Regarding `OC(COc1cccc(-c2ccc3cn[nH]c3c2)c1)CN1CCc2ccccc2C1` (stereo not shown) [Compound 58, 1-(3-(1H-indazol-6-yl)phenoxy)-3-(3,4-dihydroisoquinolin-2(1H)-yl)propan-2-ol], in experiment [1], the IC50 fell in the range of 101 to 1000 nM. In experiment [2], this compound yielded an EC50 of 10000 to 40000 nM.
On to “N-(3-(3-(3,4-dihydroisoquinolin-2(1H)-yl)-2-hydroxypropoxy)phenyl)pyrimidine-5-carboxamide [Compound 145]”, for which the IC50 in experiment [1] is 101 to 1000 nM. In experiment [2], the EC50 was > 20000 nM.
